# How the values were obtained:
# TRPC3 [1] = target: T1, TRPC3 (Homo sapiens, UniProt Q13507); experiment: Whole-cell patch-clamp recordings in HEK TRPC3-YFP cells; assay type: cell-based; details: for EC50: n = 12–27 cells
# T1 construct: expressed in transfected cells
# T1 sequence (Q13507 1-848 isoform Q13507-3): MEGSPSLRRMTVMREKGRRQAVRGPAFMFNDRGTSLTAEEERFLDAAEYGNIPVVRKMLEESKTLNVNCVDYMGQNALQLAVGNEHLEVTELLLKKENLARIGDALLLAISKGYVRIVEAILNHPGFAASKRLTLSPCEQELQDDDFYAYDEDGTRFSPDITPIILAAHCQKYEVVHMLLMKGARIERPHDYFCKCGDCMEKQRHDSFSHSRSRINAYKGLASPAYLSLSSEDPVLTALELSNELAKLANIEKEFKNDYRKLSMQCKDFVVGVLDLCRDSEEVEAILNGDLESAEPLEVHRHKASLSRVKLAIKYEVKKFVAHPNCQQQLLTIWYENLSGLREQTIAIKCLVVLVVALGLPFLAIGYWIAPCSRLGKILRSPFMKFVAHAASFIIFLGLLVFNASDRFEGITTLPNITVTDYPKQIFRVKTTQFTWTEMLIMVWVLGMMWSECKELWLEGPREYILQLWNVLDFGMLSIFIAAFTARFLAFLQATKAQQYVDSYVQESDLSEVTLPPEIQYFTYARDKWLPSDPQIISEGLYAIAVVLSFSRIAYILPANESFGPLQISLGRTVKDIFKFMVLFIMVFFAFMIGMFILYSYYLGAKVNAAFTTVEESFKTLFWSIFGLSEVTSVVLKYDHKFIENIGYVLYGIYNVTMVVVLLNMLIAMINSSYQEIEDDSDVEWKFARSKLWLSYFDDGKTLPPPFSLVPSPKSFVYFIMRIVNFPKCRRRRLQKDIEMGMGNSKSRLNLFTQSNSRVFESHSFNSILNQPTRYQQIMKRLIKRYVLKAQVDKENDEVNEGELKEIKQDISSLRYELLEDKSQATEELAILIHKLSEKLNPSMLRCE
# Description: The recordings of TRPC3, TRPC6, or TRPC7 membrane currents in HEK293 or PC12 cells were realized by using a Multiclamp 700B amplifier with a Digidata 1440A digitizer controlled by the PClamp 10 software (all Molecular Devices, Sunnyvale, CA, U.S.A.). Recordings were obtained at room temperature either in the whole-cell or in an outside-out configuration as indicated. Cells were seeded as described above, but at lower density, mounted in a chamber (Warner Instruments, Hamden, CT; U.S.A.), placed onto the stage of an inverted microscope, and perfused with required solution. The standard extracellular solution contained 140 mM NaCl, 5 mM CsCl, 2 mM MgCl2, 1 mM CaCl2, 10 mM HEPES, and 0.035% BSA adjusted to pH 7.4 with NaOH. The composition of standard intracellular solution was 140 mM CsCl, 1 mM MgCl2, 5 mM EGTA, and 10 mM HEPES adjusted to pH 7.25 with CsOH; the osmolarity was 295 mOsm l^−1. In outside-out measurements, the pipette solution contained 5 mM EGTA and 1.1 mM CaCl2 to achieve a calculated free Ca^2+ concentration of 100 nM.
# Patch pipettes were pulled from borosilicate glass capillaries BG150F-8P (Science Products, Hofheim, Germany) with a PIP6 pipette puller (HEKA Elektronik, Lambrecht, Germany). […] In all whole-cell measurements, the series resistance was lower than 13 MΩ, and compensated by 70%. If the access was unstable during the experiment (increase in series resistance by more than 15% at the end of the experiment), the cell was omitted from the analysis. To record current/voltage (I/V) curves, voltage ramps (400 mV s^−1) ranging from –100 to +100 mV were applied. Currents were filtered at 3 kHz with a four-pole Bessel filter and sampled at 10 kHz.
# Figure 4 Electrophysiological analysis of artemisinin-induced whole-cell currents in HEKTRPC3-YFP cells. The voltage protocol depicted in the box (duration of 0.8 s) was applied in 1 s intervals, and steady state inward and outward current densities averaged at potentials of –100 or +100 mV as well as voltage ramps (0.4 Vs^−1) were extracted from the data. (A) Current densities at +100 and –100 mV, respectively.
# TRPC3 [2] = test system: T2, TRPC3; experiment: Microfluorometric single-cell [Ca2+]i analysis, fura-2-loaded HEK cells stably expressing TRPC3; assay type: cell-based, human; details: 50 µM
# T2 construct: expressed in transfected cells
# Description: The microfluorometric single-cell [Ca^2+]i analysis was performed on an inverted epifluorescence microscope (Carl Zeiss, Jena, Germany) and calibrated as described. Cells were grown on 25 mm coverslips and loaded with 4 µM fura-2/AM (AAT Bioquest, Sunnyvale, CA, U.S.A.) in HBS containing 0.2% BSA for 30 min at 37 °C. After gently rinsing the coverslips with HBS, coverslips were mounted in a bath chamber and superfused with HBS containing 0.035% BSA.
# Figure 2 Microfluorometric single-cell analysis of artemisinin-induced increases in [Ca^2+]i in fura-2-loaded HEK cells stably expressing TRPC3 (A), TRPC6 (B), or TRPC7 (C). […] Experiments were performed either in standard bath solution, containing 1 mM Ca^2+ (black lines and bars), or in a nominally Ca^2+-free HBS buffer, supplemented with 200 µM EGTA (grey lines and bars). Time courses of averaged responses (left), and statistical analysis of 6–11 independent imaging experiments with means and S.D. (right) are shown. Significant differences (p < 0.05, Student´s t-test with paired data: #, with unpaired data: *) are marked for the indicated comparisons; n.s.: difference is statistically not significant.
# TRPC3 [3] = target: T1, TRPC3; experiment: Fluo-4 Ca2+ influx assay in HEK TRPC3-YFP cell suspensions; assay type: cell-based
# parental HEK293 cells = experiment: MTT cell viability assay; assay type: cell-based, human; details: 24 h
# Description: Cells were seeded in poly-L-lysine-coated 96-well plates at a density of 10,000 cells per well. After 24 h, the medium was exchanged, and compounds or the corresponding solvent were added and incubated for another 24 h. Then, the medium was removed, and a fresh medium containing 0.5 mg/mL MTT was added. After 3 h of incubation, supernatants were aspirated, and cells containing formazan crystals were lysed with 100% DMSO. Finally, absorbance of DMSO-dissolved formazan was measured at 560 and 670 nm with a plate reader (Polarstar Omega, BMG Labtech, Germany). The differences of both extinctions were calculated, and values were normalized to a solvent control (0.25% DMSO).
smiles,measurement,setting,value
C[C@@H]1CC[C@H]2[C@@H](C)C(=O)O[C@@H]3O[C@@]4(C)CC[C@@H]1[C@]32OO4 [artemisinin],"Hill coefficient, outward currents",TRPC3 [1]; +100 mV,2.2
same,EC50,"TRPC3 [1]; +100 mV, read-out: EC50 to activate TRPC3 outward currents",33 µM
same,"Hill coefficient, inward currents",TRPC3 [1]; −100 mV,2.4
same,EC50,"TRPC3 [1]; −100 mV, read-out: EC50 to activate TRPC3 inward currents",25 µM
same,[Ca2+]i signal in TRPC3-expressing cells in Ca2+-free bath,TRPC3 [2]; nominally Ca2+-free HBS with 200 µM EGTA,abolished
same,[Ca2+]i response in TRPC3-overexpressing HEK cells,TRPC3 [2]; standard bath 1 mM Ca2+,confirmed the responses
same,fluorescence signal of the Ca2+ indicator in primary screen,"TRPC3 [3]; 20 µM, acute addition",immediate and transient increase in the fluorescence signal
same,EC50 of artemisinin under simultaneous application of OAG,TRPC3 [3]; 10–100 µM OAG co-applied,not affected
same,EC50,"TRPC3 [3]; fluo-4, HEK TRPC3-YFP cell suspensions, read-out: potency to activate Ca2+ entry through TRPC3",32.8 µM
same,Ca2+ influx signals after preincubation with OAG,"TRPC3 [3]; preincubation with 500 nM, 1 µM, or 5 µM OAG",did not induce stronger Ca^2+ influx signals
same,metabolic activity (MTT test),parental HEK293 cells; 100 µM,slight and statistically significant reduction of metabolic activity
same,metabolic activity (MTT test),parental HEK293 cells; concentrations up to 50 µM,did not reduce the metabolic activity
